Measurements from patent US20160095867A1, “BET INHIBITION THERAPY FOR HEART DISEASE” (DANA-FARBER CANCER INSTITUTE, INC., priority 2013, published 2016).

System: NRVM
Assay: PE-mediated cardiomyocyte hypertrophy in NRVM (cell area measurement)
Assay type: cell-based, rat
Conditions: equimolar doses (500 nM), PE 100 μM, 48 hours
Description: NRVM were isolated from the hearts of 2 day old Sprague-Dawley rat pups (Charles River) and maintained under standard conditions as described (Haldar et al., 2010). The cells were differentially plated for 1.5 h in cell culture dishes to remove contaminating non-myocytes. Unless otherwise stated, NRVM were plated at a density of 10^5 cells/mL. Cells were initially plated in growth medium (DMEM supplemented with 5% FBS, 100 U/mL penicillin-streptomycin, and 2 mM L-glutamine) for 24-36 hours and maintained in serum-free media thereafter (DMEM supplemented with 0.1% BSA, 1% insulin-transferrin-selenium liquid media supplement (Sigma 13146), 100 U/mL penicillin-streptomycin, and 2 mM L-glutamine). Media was changed every 2-3 days. Prior to stimulation with agonists, NRVM were maintained in serum-free medium for 48-72 hours. For hypertrophic stimulation, NRVM were incubated with JQ1 versus DMSO at indicated concentrations for 6 h followed by stimulation with PE (100 μM) for indicated timepoints.
NRVM were plated on glass coverslips in 6-well dishes at a density of 10^5 cells/mL. After treatments, cells were briefly fixed in PBS containing 2% PFA, permeabilized with PBST/0.1% Triton X-100, and blocked in PBST/5% horse serum. Primary antibody was anti-sarcomeric α-actinin (Sigma A7811) at 1:800. Fluorophore-tagged anti-mouse secondary antibody (α-mouse Alexa 488 green) was used at 1:1000 dilution. Coverslips were mounted on glass slides with mounting media containing DAPI. Quantitation of cardiomyocyte cell surface area was performed on α-actinin-stained cardiomyocytes using fluorescent microscopy and NIH Image J software as previously described (Liang et al., 2001). Analysis consisted of at least 100 cardiomyocytes in 20-30 fields at 400× magnification. This process was replicated in a least three independent experiments, and the data were combined.

| SMILES | inhibition of agonist-induced cardiomyocyte hypertrophy (cell area) |
| --- | --- |
| COc1cc(OC)c2c(=O)[nH]c(-c3cc(C)c(OCCO)c(C)c3)nc2c1 [RVX-208] | inhibition of agonist-induced cardiomyocyte hypertrophy was indeed a class effect |
| COc1cc2c(cc1-c1c(C)noc1C)ncc1[nH]c(=O)n([C@H](C)c3ccccn3)c12 [iBET-151] | inhibition of agonist-induced cardiomyocyte hypertrophy was indeed a class effect |
| CCNC(=O)C[C@@H]1N=C(c2ccc(Cl)cc2)c2cc(OC)ccc2-n2c(C)nnc21 [iBET] | inhibition of agonist-induced cardiomyocyte hypertrophy was indeed a class effect |
